Structures can show the parent of a compound that is named as a salt. Calls of active or inactive are those of the source.
Columns and labels:
[1] = P. falciparum ATP4 D1247Y mutant growth inhibitors, dose response, NITD609-resistant line, SYBR Green, dry powder (AID 1159571); type: functional, cell-based;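 also: parasites synchronized at ring stage by sorbitol before testing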
[2] = P. falciparum 3D7-ScDHODH growth inhibitors, dose response, SYBR Green, dry powder samples (AID 1159570); type: functional, cell-based;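 also: parasite growth measured after 72 hours of compound exposure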
[3] = HepG2 cell cytotoxicity, dose response, cytotoxicity control, cherry-picked samples (AID 1159577); type: functional, cell-based
[4] = HepG2 cell cytotoxicity, dose response, cytotoxicity control, plate reader, dry powder samples (AID 1159569); type: functional, cell-based;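 also: inhibitor potency with signal falling toward the positive control level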
[5] = P. falciparum Dd2 growth inhibitors, dose response, SYBR Green, cherry-picked samples (AID 1159567); type: functional, cell-based
[6] = P. falciparum Dd2 growth inhibitors, dose response, SYBR Green, dry powder samples (AID 1159566); type: functional, cell-based;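 also: potency for growth inhibition with lower SYBR green DNA signal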
[7] = target: Peroxisome proliferator-activated receptor gamma/Nuclear receptor coactivator 2 (Homo sapiens, UniProt P37231); experiment: (§1) TR-FRET dose response biochemical High Throughput Screening assay for agonists of the steroid receptor coactivator 2 (SRC-2) recruitment by the peroxisome proliferator-activated receptor gamma (PPAR gamma): non-selective agonists. [Related pubchem assays: 1297, 1032 ]; type: functional
Chain of Peroxisome proliferator-activated receptor gamma/Nuclear receptor coactivator 2 (P37231 whole entry): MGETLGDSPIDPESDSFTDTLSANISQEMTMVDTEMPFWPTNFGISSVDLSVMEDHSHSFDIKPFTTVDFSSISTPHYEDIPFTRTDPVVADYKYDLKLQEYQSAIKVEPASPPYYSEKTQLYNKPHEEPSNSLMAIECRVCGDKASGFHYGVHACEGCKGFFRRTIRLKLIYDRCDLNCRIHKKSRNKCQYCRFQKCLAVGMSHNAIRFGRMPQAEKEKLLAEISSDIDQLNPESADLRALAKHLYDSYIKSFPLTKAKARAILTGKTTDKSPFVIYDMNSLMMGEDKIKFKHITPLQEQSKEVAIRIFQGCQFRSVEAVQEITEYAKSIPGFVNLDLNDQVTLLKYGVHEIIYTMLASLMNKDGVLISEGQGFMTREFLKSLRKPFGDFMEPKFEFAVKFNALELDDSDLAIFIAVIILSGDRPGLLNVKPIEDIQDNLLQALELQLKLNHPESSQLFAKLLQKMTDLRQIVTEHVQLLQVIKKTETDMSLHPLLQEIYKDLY
Chain of Peroxisome proliferator-activated receptor gamma/Nuclear receptor coactivator 2 (Q15596 whole entry, further chain): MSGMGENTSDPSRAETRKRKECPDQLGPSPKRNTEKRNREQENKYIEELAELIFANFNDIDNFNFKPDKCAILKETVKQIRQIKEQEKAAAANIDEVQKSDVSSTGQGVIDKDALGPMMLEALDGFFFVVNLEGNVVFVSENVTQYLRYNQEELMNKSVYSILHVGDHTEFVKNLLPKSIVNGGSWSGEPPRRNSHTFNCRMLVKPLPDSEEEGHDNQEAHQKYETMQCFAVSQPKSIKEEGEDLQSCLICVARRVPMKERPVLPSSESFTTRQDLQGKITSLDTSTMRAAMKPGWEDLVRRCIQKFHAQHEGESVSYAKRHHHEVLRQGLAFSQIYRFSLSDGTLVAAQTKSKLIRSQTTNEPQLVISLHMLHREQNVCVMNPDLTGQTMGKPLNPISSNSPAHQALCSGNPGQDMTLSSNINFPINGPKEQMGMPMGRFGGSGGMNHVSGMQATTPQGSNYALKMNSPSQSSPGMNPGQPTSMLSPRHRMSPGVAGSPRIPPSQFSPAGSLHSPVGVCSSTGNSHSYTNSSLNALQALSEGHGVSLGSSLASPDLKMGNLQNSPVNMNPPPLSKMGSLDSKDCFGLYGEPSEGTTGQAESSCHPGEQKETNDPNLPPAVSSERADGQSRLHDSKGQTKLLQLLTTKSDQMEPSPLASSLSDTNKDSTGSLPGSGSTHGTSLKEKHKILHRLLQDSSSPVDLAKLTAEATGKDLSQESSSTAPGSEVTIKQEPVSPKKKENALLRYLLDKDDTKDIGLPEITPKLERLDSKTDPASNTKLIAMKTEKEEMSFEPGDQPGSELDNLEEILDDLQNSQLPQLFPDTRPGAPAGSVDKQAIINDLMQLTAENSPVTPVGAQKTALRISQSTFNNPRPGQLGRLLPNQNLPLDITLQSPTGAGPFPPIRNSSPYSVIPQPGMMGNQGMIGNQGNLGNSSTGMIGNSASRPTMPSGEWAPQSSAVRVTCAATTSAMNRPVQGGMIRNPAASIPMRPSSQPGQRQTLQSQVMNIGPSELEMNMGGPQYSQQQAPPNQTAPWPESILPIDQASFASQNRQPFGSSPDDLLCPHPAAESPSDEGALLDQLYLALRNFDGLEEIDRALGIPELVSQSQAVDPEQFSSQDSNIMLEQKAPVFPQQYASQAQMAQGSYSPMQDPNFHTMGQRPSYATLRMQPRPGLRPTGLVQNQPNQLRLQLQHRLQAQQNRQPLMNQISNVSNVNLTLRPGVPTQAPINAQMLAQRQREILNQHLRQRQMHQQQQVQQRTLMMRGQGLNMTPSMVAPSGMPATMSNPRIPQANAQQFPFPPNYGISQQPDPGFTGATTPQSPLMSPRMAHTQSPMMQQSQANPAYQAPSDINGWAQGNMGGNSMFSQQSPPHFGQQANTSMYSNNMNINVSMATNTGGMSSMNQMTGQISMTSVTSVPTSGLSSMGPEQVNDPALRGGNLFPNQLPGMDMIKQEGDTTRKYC

[8] = target: Peroxisome proliferator-activated receptor gamma/Nuclear receptor coactivator 3 (Homo sapiens, UniProt P37231); experiment: as §1, with “3 (SRC-3)” for “2 (SRC-2)”, “1301 (Confirmation screen.), 1048 (Primary screen.)]” for “1297, 1032 ]”; type: functional
[9] = target: Peroxisome proliferator-activated receptor gamma/Nuclear receptor coactivator 1 (Homo sapiens, UniProt P37231); experiment: as §1, with “1 (SRC-1)” for “2 (SRC-2)”, “assays (depositor defined):AID1300, AID1808, AID504735, AID631]” for “assays: 1297, 1032 ]”; type: protein assay
Chain of Peroxisome proliferator-activated receptor gamma/Nuclear receptor coactivator 1 (P37231 whole entry): as the sequence (P37231 whole entry) above
Chain of Peroxisome proliferator-activated receptor gamma/Nuclear receptor coactivator 1 (Q15788 whole entry, further chain): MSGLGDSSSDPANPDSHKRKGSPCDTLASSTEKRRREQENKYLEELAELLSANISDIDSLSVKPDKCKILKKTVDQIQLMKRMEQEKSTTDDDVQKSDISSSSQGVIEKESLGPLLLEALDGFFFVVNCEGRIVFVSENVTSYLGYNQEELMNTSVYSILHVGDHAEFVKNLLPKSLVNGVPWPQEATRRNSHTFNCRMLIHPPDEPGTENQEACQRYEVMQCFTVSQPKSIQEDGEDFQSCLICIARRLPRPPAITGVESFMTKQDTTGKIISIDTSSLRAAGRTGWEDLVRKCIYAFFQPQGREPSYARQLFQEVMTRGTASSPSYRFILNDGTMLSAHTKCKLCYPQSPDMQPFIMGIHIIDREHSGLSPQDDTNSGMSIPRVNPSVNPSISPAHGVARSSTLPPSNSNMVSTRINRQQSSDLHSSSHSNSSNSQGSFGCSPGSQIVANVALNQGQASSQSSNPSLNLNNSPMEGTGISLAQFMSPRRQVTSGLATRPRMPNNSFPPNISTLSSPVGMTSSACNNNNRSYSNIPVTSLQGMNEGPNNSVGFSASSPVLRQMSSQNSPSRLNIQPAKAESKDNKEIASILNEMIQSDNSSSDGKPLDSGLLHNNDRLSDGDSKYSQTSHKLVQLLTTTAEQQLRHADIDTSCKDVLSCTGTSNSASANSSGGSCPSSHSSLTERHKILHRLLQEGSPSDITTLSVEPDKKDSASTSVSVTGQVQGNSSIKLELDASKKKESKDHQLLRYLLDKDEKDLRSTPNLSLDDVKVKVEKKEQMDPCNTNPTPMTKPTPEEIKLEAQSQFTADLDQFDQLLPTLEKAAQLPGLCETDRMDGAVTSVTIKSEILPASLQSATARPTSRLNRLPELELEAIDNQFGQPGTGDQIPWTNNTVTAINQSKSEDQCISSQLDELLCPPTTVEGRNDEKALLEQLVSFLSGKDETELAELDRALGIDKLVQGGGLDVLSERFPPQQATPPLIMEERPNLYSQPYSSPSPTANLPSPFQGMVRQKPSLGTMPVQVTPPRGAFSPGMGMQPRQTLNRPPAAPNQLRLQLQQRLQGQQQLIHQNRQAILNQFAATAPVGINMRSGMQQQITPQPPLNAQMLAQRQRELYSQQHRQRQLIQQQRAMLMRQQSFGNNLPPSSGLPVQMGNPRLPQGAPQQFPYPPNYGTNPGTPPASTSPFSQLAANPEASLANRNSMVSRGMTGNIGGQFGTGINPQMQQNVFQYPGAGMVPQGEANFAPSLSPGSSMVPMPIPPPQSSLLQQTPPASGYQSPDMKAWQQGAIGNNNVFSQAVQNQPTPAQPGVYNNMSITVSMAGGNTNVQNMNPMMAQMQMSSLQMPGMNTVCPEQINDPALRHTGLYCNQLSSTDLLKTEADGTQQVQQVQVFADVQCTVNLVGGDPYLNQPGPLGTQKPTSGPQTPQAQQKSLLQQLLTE

[10] = target: T1, Cytochrome P450 1A2 (Homo sapiens, UniProt P05177);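 also: PubChem cytochrome P450 panel assay, CYP1A2 panel member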
T1 sequence (P05177 whole entry): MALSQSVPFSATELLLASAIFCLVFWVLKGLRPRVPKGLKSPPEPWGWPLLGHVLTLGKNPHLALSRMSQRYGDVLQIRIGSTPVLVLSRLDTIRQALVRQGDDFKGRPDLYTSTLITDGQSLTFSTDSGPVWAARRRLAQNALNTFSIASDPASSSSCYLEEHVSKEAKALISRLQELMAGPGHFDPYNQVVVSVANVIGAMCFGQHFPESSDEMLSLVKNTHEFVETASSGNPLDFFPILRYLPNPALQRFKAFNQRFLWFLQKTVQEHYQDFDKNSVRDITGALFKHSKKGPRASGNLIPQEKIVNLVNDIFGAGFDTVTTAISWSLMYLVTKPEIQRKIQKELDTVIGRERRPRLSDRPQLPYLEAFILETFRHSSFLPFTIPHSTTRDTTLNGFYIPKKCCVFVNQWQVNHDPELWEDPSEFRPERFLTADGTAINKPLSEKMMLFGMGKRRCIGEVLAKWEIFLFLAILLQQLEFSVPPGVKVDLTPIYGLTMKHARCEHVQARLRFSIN

[11] = target: Voltage-gated inwardly rectifying potassium channel KCNH2 (Homo sapiens, UniProt Q12809); settings: Potency;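 also: confirmatory quantitative high-throughput screen measuring inhibition of hERG channel activity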
Chain of Voltage-gated inwardly rectifying potassium channel KCNH2 (Q12809 whole entry): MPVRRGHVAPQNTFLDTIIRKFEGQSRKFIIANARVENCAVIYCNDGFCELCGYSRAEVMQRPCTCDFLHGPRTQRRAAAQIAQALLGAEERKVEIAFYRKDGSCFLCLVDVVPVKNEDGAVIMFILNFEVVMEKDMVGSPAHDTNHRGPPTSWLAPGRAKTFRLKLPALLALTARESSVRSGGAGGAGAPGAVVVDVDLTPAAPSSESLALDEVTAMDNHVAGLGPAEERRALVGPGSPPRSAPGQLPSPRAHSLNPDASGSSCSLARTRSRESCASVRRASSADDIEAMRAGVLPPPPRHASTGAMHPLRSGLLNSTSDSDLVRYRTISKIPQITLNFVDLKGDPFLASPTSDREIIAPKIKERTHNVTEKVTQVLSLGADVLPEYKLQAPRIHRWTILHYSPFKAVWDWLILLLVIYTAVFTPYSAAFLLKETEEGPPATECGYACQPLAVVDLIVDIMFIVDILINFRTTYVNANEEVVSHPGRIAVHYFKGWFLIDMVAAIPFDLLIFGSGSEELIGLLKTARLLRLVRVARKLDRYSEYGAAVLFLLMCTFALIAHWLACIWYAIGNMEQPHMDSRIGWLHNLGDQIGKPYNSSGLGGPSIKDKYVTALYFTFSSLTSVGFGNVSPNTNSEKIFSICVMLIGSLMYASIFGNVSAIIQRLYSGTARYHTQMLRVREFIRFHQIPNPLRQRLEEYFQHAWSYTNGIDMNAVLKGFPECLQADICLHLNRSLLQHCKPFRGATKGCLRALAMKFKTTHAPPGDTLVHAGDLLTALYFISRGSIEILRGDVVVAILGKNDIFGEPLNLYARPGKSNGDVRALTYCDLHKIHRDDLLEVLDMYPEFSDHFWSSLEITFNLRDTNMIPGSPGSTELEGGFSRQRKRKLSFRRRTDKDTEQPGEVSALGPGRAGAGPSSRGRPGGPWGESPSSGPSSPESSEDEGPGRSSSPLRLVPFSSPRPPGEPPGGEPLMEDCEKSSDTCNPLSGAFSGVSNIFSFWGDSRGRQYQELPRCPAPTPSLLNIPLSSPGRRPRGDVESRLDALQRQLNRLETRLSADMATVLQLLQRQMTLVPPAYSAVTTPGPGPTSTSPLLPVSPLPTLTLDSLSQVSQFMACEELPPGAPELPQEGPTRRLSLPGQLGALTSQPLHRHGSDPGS

[12] = target: Cytochrome P450 2D6 (Homo sapiens, UniProt P10635);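 also: CYP2D6 member of a cytochrome P450 panel assay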
[13] = system: HT-1080; experiment: cytotoxicity in HT1080 fibrosarcoma cells, cell-based, fluorescence readout (AID 620); type: functional; settings: Homo sapiens
[14] = target: Luciferin 4-monooxygenase (Photinus pyralis, UniProt P08659); experiment: Counter Screen for Luciferase-based Assay Positives. [Related pubchem assays: 620, 618, 411 ]
[15] = cytotoxicity in HPDE-C7 cells, cell-based, fluorescence, HTS (AID 430); type: functional; settings: Homo sapiens
[16] = cytotoxicity in KRAS-transformed pancreatic duct cells, primary screen, cell-based, fluorescence, HTS (AID 431); type: functional; settings: Homo sapiens;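 also: cell line used: HPDE-C7K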
[17] = target: FAD-linked sulfhydryl oxidase ALR (Homo sapiens, UniProt P55789); experiment: inhibitors of human ALR sulfhydryl oxidase, dose response, biochemical, H2O2 detection, luminescence, cherry-pick (AID 493248)
[18] = A Cell Based Secondary Assay To Explore Cytotoxicity of Compounds that Sensitize Mycobacterium Tuberculosis to Beta-Lactam Antibiotics.; type: functional

With COc1ccc2c3c([nH]c2c1)[C@H](CO)N(Cc1ccccn1)CC31CCN(Cc2cccc(F)c2)CC1 the AC50 [1] was 0.559 µM (active), the AC50 [2] was 1.12 µM (active) and the AC50 [3] was > 39 µM (inactive). The AC50 [4] was 1.21 µM (active), the AC50 [5] was 1.48 µM (active) and the AC50 [6] was 0.422 µM (active).
With O=c1oc(-c2ccccc2F)nc2c1cnn2-c1ccccc1 the EC50 [7] was > 79.4 µM (not active), the EC50 [8] was > 79.4 µM (not active) and the EC50 [9] was > 79.4 µM (inactive).
For O=C(c1cc2c(s1)-c1ccccc1OC2)N1CCN(c2ccccn2)CC1, the EC50 [7] was 23.2 µM (not active), the EC50 [8] was > 79.4 µM (not active) and the EC50 [9] was 33.7 µM (inactive).
With COc1ccc(-c2ccc([C@H]3[C@H](C#N)N(C(=O)c4cccnc4)[C@H]3CO)cc2)cc1 the AC50 [1] was 0.586 µM (active), the AC50 [2] was 1.15 µM (active) and the AC50 [3] was > 42 µM (inactive). The AC50 [4] was > 100 µM (inactive), the AC50 [5] was 1.25 µM (active) and the AC50 [6] was 0.764 µM (active).
In the case of Clc1ccc(Cl)c(-c2ccc(/C=N/c3nc[nH]n3)o2)c1, the EC50 [7] is reported as 12.6 µM (not active), the EC50 [8] is reported as > 79.4 µM (not active) and the EC50 [9] is reported as 13.7 µM (inactive).
In the case of COc1ccc2c3c([nH]c2c1)[C@@H](CO)N(Cc1ccccc1)CC31CCN(Cc2cncnc2)CC1, the AC50 [1] is reported as 0.871 µM (active), the AC50 [2] is reported as 1.27 µM (active) and the AC50 [3] is reported as > 39 µM (inactive). The AC50 [5] was 2.12 µM (active) and the AC50 [6] was 0.929 µM (active).
In the case of NNC(=O)c1ccncc1 [ISONIAZID], the AC50 [10] is reported as 6.31 µM (inconclusive), the AC50 [11] is reported as 35.5 µM (inconclusive) and the AC50 [12] is reported as 12.6 µM (inconclusive).
For CCCCc1ccc(-c2nc(-c3ccncc3)no2)cc1, the EC50 [13] was > 50 µM (not active) and the EC50 [14] was 60.6 µM (active).
For CC(CN1c2ccccc2Sc2ccccc21)N(C)C (centres undefined) [PROMETHAZINE HYDROCHLORIDE], the EC50 [15] was > 20 µM (not active), the EC50 [16] was > 20 µM (not active) and the AC50 [11] was 15.8 µM (inconclusive). For the same compound, the AC50 [17] was 0.367 µM (active).
With CC(C)C(=O)Nc1ccc(NC(=O)c2ccccn2)cn1 the EC50 [13] was > 50 µM (not active) and the EC50 [14] was 0.44 µM (active).
With CC1(C)CCC2=C(O1)c1ccccc1C(=O)C2=O [LAPACHONE] the AC50 [11] was 15.8 µM (inconclusive).
With Cc1ccc(CN2C(=O)N/C(=C\c3ccc(-c4ccc(C(=O)O)cc4C)o3)C2=O)cc1 the CC50 [18] was > 40 µM (active).

Reference: ChEMBL document CHEMBL1201862, “PubChem BioAssay data set” (2004)
